Reference: patent US6939563B2, “Non-fermented osmotic laxative and method for treating and preventing colorectal cancers” (Inra-Institut National de la Recherche Agronomique, priority 1998, dated 2005)
Like-named read-outs stand apart in the source and are kept apart here.

Key:
[1] = tested on: colon carcinogenesis in rats; experiment: Wargovich et al. Int. J. Cancer 1995 (Ref 12): AOM, then 4 wks, then agent 4 wks; assay type: in vivo, rat; details: Ref 12 (Piroxicam line prints Ref 8); from published data
Source text: (§1) Each value is the ratio between the value in the controls given a carcinogenic substance and the value found in animals treated with a preventive agent before or after the carcinogenic substance. The higher the value the greater the effectiveness of the agent.
(§2) The results given in Table 4 were established on the basis of published data indicated in references 2 to 12 in Table 5 below.

[2] = tested on: colon carcinogenesis in rats; details: AOM, then 4 wks, then agent 4 wks, cited from earlier work; for ACF/rat: Aspirin 0.2 g/kg (control 175), Piroxicam 0.2 (control 125), 13 cis Retinoic (control 140); for Large ACF: controls 55 (aspirin), 40 (piroxicam), 57 (retinoic)
[3] = tested on: colon carcinogenesis in rats; experiment: Tanaka et al. Carcinogenesis 1997 (Ref 11): ACF induced by 3 x AOM 15 mg/kg; assay type: in vivo, rat; details: from published data; for n° ACF/rat, ratio controls/treated: Hesperidin 1000 ppp, Auraptene 500 ppm
Source text: as §1, §2

[4] = tested on: colon carcinogenesis in rats; details: 3 x AOM 15 mg/kg, cited from earlier work; for ACF/rat: Hesperidin 1000 ppm (control 89 ± 17), Acetoxychavicol acet 100 ppm (control 118 ± 28), Auraptene (control 157 ± 21); for Crypt/ACF: controls 2.77 (Hesperidin), 2.54 (Acetoxychavicol acet), 2.91 (Auraptene)
[5] = tested on: colon carcinogenesis in rats; experiment: Takahashi et al. Carcinogenesis 1997 (Ref 9): ACF induced by 10x PhIP, DHA before each dose; assay type: in vivo, rat; details: from published data
Source text: as §1, §2

[6] = tested on: colon carcinogenesis in rats; experiment: Takahashi et al. Carcinogenesis 1997 (Ref 10): ACF induced by 20x AOM, DHA with each dose; assay type: in vivo, rat; details: from published data
Source text: as §1, §2

[7] = tested on: colon carcinogenesis in rats; details: ACF induced by 10x PhIP, DHA 4 h before each dose, cited from earlier work
[8] = tested on: colon carcinogenesis in rats; details: 20x AOM, 1 ml DHA with each dose, 12w, cited from earlier work
[9] = tested on: colon carcinogenesis in rats; experiment: Pereira-Khoury Cancer Lett. 1991 (Ref 4): agent wk-1 to +4, 2x15 mg AOM; assay type: in vivo, rat; details: from published data
Source text: as §1, §2

[10] = tested on: colon carcinogenesis in rats; details: agent wk-1 to +4, 2x15 mg AOM at wk 0, cited from earlier work; for Crypt/ACF: control 2.59 ± 0.14; for ACF/rat: control 228 ± 32
[11] = tested on: colon carcinogenesis in rats; experiment: Pereira et al. Carcinogenesis 1994 (Ref 5): agent day 1-35, AOM d. 7 & 14; assay type: in vivo, rat; details: from published data
Source text: as §1, §2

[12] = tested on: colon carcinogenesis in rats; details: agent day 1-35, AOM on d. 7 & 14, cited from earlier work; for Crypt/ACF: control 2.04 ± 0.04; for ACF/rat: control 26 ± 2.2
[13] = tested on: colon carcinogenesis in rats; experiment: Salim et al. Jpn J Cancer Res 88 (Ref 8): Vit. D3 post DMH 16 wks; assay type: in vivo, rat; details: from published data
Source text: as §1, §2

[14] = tested on: colon carcinogenesis in rats; details: Vit. D3 10 ppm post DMH for 16 wks, cited from earlier work
[15] = tested on: colon carcinogenesis in rats; experiment: Reddy et al. Carcinogenesis 1997 (Ref 6): inulin 10 wks, AOM wk 3 & 4; assay type: in vivo, rat; details: from published data
Source text: as §1, §2

[16] = tested on: colon carcinogenesis in rats; details: Inulin 10% for 10 wks, AOM at wk 3 & 4, cited from earlier work

## CC1=C(/C=C/C(C)=C/C=C/C(C)=C\C(=O)O)C(C)(C)CCC1 [13 cis retinoic]
[1]
  Large ACF, ratio controls/treated: 1.9
  n° ACF/rat, ratio controls/treated: 2.0
[2]
  ACF/rat: 70
  Large ACF: 30

## C=C[C@H](OC(C)=O)c1ccc(OC(C)=O)cc1 [Acetoxychavicol acet.]
[3]
  n° ACF/rat, ratio controls/treated: 1.7
  Crypts/ACF, ratio controls/treated: 1.13
  Large ACF, ratio controls/treated: 2.1
[4]; Acetoxychavicol acet 100 ppm, control 60
  Large ACF: 28
[4]
  ACF/rat: 70 ± 10
  Crypt/ACF: 2.24

## CC(=O)Oc1ccccc1C(=O)O [Aspirin]
[1]
  Large ACF, ratio controls/treated: 2.7
  n° ACF/rat, ratio controls/treated: 1.7
[2]
  ACF/rat: 100
  Large ACF: 20

## CC(C)=CCC/C(C)=C/COc1ccc2ccc(=O)oc2c1 [Auraptene]
[3]
  n° ACF/rat, ratio controls/treated: 2.3
  Crypts/ACF, ratio controls/treated: 1.33

## CC/C=C\C/C=C\C/C=C\C/C=C\C/C=C\C/C=C\CCC(=O)O [DHA]
[5]
  Crypts/ACF, ratio controls/treated: 1.13
  n° ACF/rat, ratio controls/treated: 2.8
[6]
  Crypts/ACF, ratio controls/treated: 1.08
  Large ACF, ratio controls/treated: 2.0
  n° ACF/rat, ratio controls/treated: 1.6
[7]; control 2.69
  Crypts/ACF: 2.39
[7]; control 22
  ACF/rat: 8
[8]; control 3.2
  Crypt/ACF: 2.95
[8]; control 114
  Large ACF: 56
[8]; control 308 ± 64
  ACF/rat: 191 ± 40

## C[C@]12CC[C@H](O)CC1=CC[C@@H]1[C@@H]2CC[C@]2(C)C(=O)CC[C@@H]12 [Dehydroepiandrosterone]
[9]
  Crypts/ACF, ratio controls/treated: 1.06
  n° ACF/rat, ratio controls/treated: 1.9
[10]
  Crypt/ACF: 2.44 ± 0.07
  ACF/rat: 121 ± 19

## COc1ccc([C@@H]2CC(=O)c3c(O)cc(O[C@@H]4O[C@H](CO[C@@H]5O[C@@H](C)[C@H](O)[C@@H](O)[C@H]5O)[C@@H](O)[C@H](O)[C@H]4O)cc3O2)cc1O [Hesperidin]
[3]
  n° ACF/rat, ratio controls/treated: 2.6
  Crypts/ACF, ratio controls/treated: 1.25
[4]
  ACF/rat: 34 ± 5
  Crypt/ACF: 2.22

## CC(=O)N[C@@H](CS)C(=O)O [N-acetylcysteine]
[9]
  Crypts/ACF, ratio controls/treated: 1.10
  n° ACF/rat, ratio controls/treated: 1.5
[10]
  Crypt/ACF: 2.35 ± 0.07
  ACF/rat: 151 ± 21

## CN1C(C(=O)Nc2ccccn2)=C(O)c2ccccc2S1(=O)=O [Piroxicam]
[11]
  Crypts/ACF, ratio controls/treated: 1.10
  n° ACF/rat, ratio controls/treated: 1.6
[1]
  Large ACF, ratio controls/treated: 8
  n° ACF/rat, ratio controls/treated: 2.8
[12]
  Crypt/ACF: 1.84 ± 0.1
  ACF/rat: 16 ± 2.8
[2]
  ACF/rat: 45
  Large ACF: 5

## CC1=C(CC(=O)O)c2cc(F)ccc2/C1=C\c1ccc([S+](C)[O-])cc1 (centres unmarked) [Sulindac]
[11]
  Crypts/ACF, ratio controls/treated: 1.10
  n° ACF/rat, ratio controls/treated: 1.7
[12]
  Crypt/ACF: 1.82 ± 0.14
  ACF/rat: 15 ± 3.2

## C=C1CC[C@H](O)C/C1=C/C=C1\CCC[C@]2(C)[C@@H]([C@H](C)CCCC(C)C)CC[C@@H]12 [Vit. D3]
[13]
  Large ACF, ratio controls/treated: 1.8
  n° ACF/rat, ratio controls/treated: 1.3
[14]; control 120
  Large ACF: 66
[14]; control 352
  ACF/rat: 269

## Inulin
[15]
  Large ACF, ratio controls/treated: 1.4
  n° ACF/rat, ratio controls/treated: 1.5
[16]; control 56
  Large ACF: 39
[16]; control 120
  ACF/rat: 78

## Oxothiazolidine
[9]
  Crypts/ACF, ratio controls/treated: 1.09
  n° ACF/rat, ratio controls/treated: 1.9
[10]
  Crypt/ACF: 2.38 ± 0.08
  ACF/rat: 121 ± 11
